Among the data in US20250082630A1, “METHODS OF TREATING BRAIN TUMOURS AND NEUROBLASTOMAS” (AstraZeneca AB, priority 2021, published 2025) are IC50 values, retold here.

The target of one experiment is PARP1 (Homo sapiens (Human), UniProt P09874). As to the kind of experiment: PARP fluorescence anisotropy binding assay, PARP1.
The target of the next experiment is PARP2 (Homo sapiens (Human), UniProt Q9UGN5). Briefly: PARP fluorescence anisotropy binding assay, PARP2. As to the method:
Recombinant full length PARP2 protein was diluted to 6 nM with 50 mM Tris pH 8, 0.001% Triton X100, 10 mM MgCl2, 150 mM NaCl and incubated for four hours with an equivalent volume of 2 nM fluorescent probe diluted with 50 mM Tris pH 8, 0.001% Triton X100, 10 mM MgCl2, 150 mM NaCl. The final DMSO concentration of the probe was kept below 1% (v/v).
Fluorescence anisotropy of the probe when bound to the proteins was measured using a BMG Pherastar FSX® in the presence of test compounds or solvent control and the effect on anisotropy determined. % inhibition values for different test compound concentrations were calculated and fitted to a four parameter logistic plot in order to determine the IC50 value.
For orientation: Fluorescence polarisation rises when a labelled molecule tumbles more slowly, as on binding a larger partner.

Chain of PARP2 (Q9UGN5 whole entry): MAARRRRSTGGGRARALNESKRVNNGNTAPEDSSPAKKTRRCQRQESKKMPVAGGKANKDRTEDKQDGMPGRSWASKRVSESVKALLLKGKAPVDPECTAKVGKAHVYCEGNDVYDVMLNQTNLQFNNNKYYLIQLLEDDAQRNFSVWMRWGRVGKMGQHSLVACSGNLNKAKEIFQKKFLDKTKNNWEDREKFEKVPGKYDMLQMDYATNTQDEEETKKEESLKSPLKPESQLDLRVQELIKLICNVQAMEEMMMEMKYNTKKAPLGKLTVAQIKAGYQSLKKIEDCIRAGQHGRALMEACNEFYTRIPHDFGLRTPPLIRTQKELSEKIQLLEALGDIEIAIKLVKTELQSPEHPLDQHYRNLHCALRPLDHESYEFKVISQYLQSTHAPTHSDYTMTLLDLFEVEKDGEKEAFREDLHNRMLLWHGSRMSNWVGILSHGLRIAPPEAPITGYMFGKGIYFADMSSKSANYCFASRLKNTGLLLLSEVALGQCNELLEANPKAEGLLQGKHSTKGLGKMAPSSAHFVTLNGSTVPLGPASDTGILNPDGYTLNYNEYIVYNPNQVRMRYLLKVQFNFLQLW
Chain of PARP1 (P09874 whole entry): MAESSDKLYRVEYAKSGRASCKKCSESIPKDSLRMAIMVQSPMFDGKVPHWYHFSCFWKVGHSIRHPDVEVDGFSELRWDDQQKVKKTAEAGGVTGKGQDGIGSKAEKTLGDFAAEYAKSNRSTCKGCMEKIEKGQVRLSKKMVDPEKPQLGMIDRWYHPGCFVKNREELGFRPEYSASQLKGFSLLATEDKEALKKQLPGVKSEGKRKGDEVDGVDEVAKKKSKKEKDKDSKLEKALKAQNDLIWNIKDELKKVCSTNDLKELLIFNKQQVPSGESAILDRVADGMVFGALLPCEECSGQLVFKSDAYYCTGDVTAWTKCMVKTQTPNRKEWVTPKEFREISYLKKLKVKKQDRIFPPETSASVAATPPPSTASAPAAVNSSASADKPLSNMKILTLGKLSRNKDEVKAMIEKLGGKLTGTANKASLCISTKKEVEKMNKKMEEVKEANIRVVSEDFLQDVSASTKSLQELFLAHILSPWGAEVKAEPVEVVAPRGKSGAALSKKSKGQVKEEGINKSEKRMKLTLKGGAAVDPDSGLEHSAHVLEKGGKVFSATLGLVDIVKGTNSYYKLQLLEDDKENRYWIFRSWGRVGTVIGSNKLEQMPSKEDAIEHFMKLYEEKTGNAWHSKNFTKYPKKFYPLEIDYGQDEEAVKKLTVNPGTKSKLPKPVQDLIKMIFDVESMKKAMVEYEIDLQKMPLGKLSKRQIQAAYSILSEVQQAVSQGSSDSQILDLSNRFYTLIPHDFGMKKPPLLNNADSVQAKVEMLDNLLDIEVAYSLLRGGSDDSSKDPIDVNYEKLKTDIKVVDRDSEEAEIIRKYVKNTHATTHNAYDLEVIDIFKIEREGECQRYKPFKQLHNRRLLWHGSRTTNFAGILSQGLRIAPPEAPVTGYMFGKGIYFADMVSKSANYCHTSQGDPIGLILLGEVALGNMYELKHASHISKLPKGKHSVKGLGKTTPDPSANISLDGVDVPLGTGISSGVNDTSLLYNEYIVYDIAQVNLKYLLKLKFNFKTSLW

In general, IC50 refers to the point on the concentration scale where inhibition reaches its midpoint. Low values mean higher potency, high ones lower potency. Regarding `CNC(=O)c1ccc(N2CCN(Cc3ccc4nc(C)c(=O)[nH]c4c3C)CC2)cn1` [Example 2, 5-[4-[(2,5-dimethyl-3-oxo-4H-quinoxalin-6-yl)methyl]piperazin-1-yl]-N-methyl-pyridine-2-carboxamide], the IC50 on PARP1 was determined as 11 nM; on PARP2, 15000 nM.
For `Cc1nc2ccc(CN3CCN(c4ccc(C(N)=O)nc4F)CC3)c(C)c2[nH]c1=O` [Example 5, 5-[4-[(2,5-dimethyl-3-oxo-4H-quinoxalin-6-yl)methyl]piperazin-1-yl]-6-fluoro-pyridine-2-carboxamide], in that order: 5 nM and more than 63000 nM.
For `Cc1nc(C(N)=O)ccc1N1CCN(Cc2ccc3nc(C)c(=O)[nH]c3c2F)CC1` [Example 6, 5-[4-[(5-fluoro-2-methyl-3-oxo-4H-quinoxalin-6-yl)methyl]piperazin-1-yl]-6-methyl-pyridine-2-carboxamide], in that order: 4 nM and more than 100000 nM.
For `Cc1nc(C(N)=O)ccc1N1CCN(Cc2ccc3nc(C)c(=O)[nH]c3c2C)CC1` [Example 7, 5-[4-[(2,5-dimethyl-3-oxo-4H-quinoxalin-6-yl)methyl]piperazin-1-yl]-6-methyl-pyridine-2-carboxamide], in that order: 6 nM and 58000 nM.
The molecule `CCc1nc2ccc(CN3CCN(c4ccc(C(=O)NC)nc4Cl)CC3)c(Cl)c2[nH]c1=O` [Example 8, 6-chloro-5-[4-[(5-chloro-2-ethyl-3-oxo-4H-quinoxalin-6-yl)methyl]piperazin-1-yl]-N-methyl-pyridine-2-carboxamide] gave an IC50 on PARP1 of 4 nM.
On the same count and under the same terms, with `CCc1nc2ccc(CN3CCN(c4ccc(C(=O)NC)nc4)CC3)c(Cl)c2[nH]c1=O` [Example 10, 5-[4-[(5-chloro-2-ethyl-3-oxo-4H-quinoxalin-6-yl)methyl]piperazin-1-yl]-N-methyl-pyridine-2-carboxamide] the figure was 13 nM; with `CCc1nc2ccc(CN3CCN(c4ccc(C(=O)NC)nc4C)CC3)c(Cl)c2[nH]c1=O` [Example 11, 5-[4-[(5-chloro-2-ethyl-3-oxo-4H-quinoxalin-6-yl)methyl]piperazin-1-yl]-N,6-dimethyl-pyridine-2-carboxamide], 3 nM; with `CNC(=O)c1ccc(N2CCN(Cc3ccc4nc(C)c(=O)[nH]c4c3Cl)CC2)cn1` [Example 16, 5-[4-[(5-chloro-2-methyl-3-oxo-4H-quinoxalin-6-yl)methyl]piperazin-1-yl]-N-methyl-pyridine-2-carboxamide], 10 nM.
Still for that read-out and setting: with `CNC(=O)c1ccc(N2CCN(Cc3ccc4nc(C)c(=O)[nH]c4c3Cl)CC2)c(F)n1` [Example 17, 5-[4-[(5-chloro-2-methyl-3-oxo-4H-quinoxalin-6-yl)methyl]piperazin-1-yl]-6-fluoro-N-methyl-pyridine-2-carboxamide] the figure was 6 nM.
For the molecule `Cc1nc2ccc(CN3CCN(c4ccc(C(N)=O)nc4F)CC3)c(F)c2[nH]c1=O` [Example 22, 6-fluoro-5-[4-[(5-fluoro-2-methyl-3-oxo-4H-quinoxalin-6-yl)methyl]piperazin-1-yl]pyridine-2-carboxamide], the IC50 on PARP1 came out at 6 nM; at PARP2 it was 87000 nM.
For `CCc1nc2ccc(CN3CCN(c4ccc(C(N)=O)nc4)CC3)c(F)c2[nH]c1=O` [Example 25, 5-[4-[(2-ethyl-5-fluoro-3-oxo-4H-quinoxalin-6-yl)methyl]piperazin-1-yl]pyridine-2-carboxamide], in that order: 5 nM and more than 100000 nM.
For `CCc1nc2ccc(CN3CCN(c4ccc(C(N)=O)nc4C)CC3)c(F)c2[nH]c1=O` [Example 26, 5-[4-[(2-ethyl-5-fluoro-3-oxo-4H-quinoxalin-6-yl)methyl]piperazin-1-yl]-6-methyl-pyridine-2-carboxamide], in that order: 5 nM and 88000 nM.
For `CNC(=O)c1ccc(N2CCN(Cc3ccc4ncc(=O)[nH]c4c3F)CC2)cn1` [Example 33, 5-[4-[(5-fluoro-3-oxo-4H-quinoxalin-6-yl)methyl]piperazin-1-yl]-N-methyl-pyridine-2-carboxamide], in that order: 167 nM and more than 100000 nM.
`CNC(=O)c1ccc(N2CCN(Cc3ccc4ncc(=O)[nH]c4c3F)CC2)c(C)n1` [Example 35, 5-[4-[(5-fluoro-3-oxo-4H-quinoxalin-6-yl)methyl]piperazin-1-yl]-N,6-dimethyl-pyridine-2-carboxamide]: the IC50 is 30 nM on PARP1 and more than 100000 nM at PARP2.
For `CNC(=O)c1ccc(N2CCN(Cc3ccc4ncc(=O)[nH]c4c3F)CC2)c(F)n1` [Example 36, 6-fluoro-5-[4-[(5-fluoro-3-oxo-4H-quinoxalin-6-yl)methyl]piperazin-1-yl]-N-methyl-pyridine-2-carboxamide], the values for the IC50 at PARP1 and at PARP2 were 22 nM and more than 100000 nM, respectively.
Taken in the same sequence, the figures for `CCc1nc2ccc(CN3CCN(c4ccc(C(=O)NC)nc4C)CC3)c(C)c2[nH]c1=O` [Example 42, 5-[4-[(2-ethyl-5-methyl-3-oxo-4H-quinoxalin-6-yl)methyl]piperazin-1-yl]-N,6-dimethyl-pyridine-2-carboxamide] were 5 nM and more than 88000 nM.
Taken in the same sequence, the figures for `CCc1nc2ccc(CN3CCN(c4ccc(C(=O)NC)nc4F)CC3)c(C)c2[nH]c1=O` [Example 43, 5-[4-[(2-ethyl-5-methyl-3-oxo-4H-quinoxalin-6-yl)methyl]piperazin-1-yl]-6-fluoro-N-methyl-pyridine-2-carboxamide] were 5 nM and more than 100000 nM.
Taken in the same sequence, the figures for `CCc1nc2ccc(CN3CCN(c4ccc(C(=O)NC)nc4)CC3)c(C)c2[nH]c1=O` [Example 44, 5-[4-[(2-ethyl-5-methyl-3-oxo-4H-quinoxalin-6-yl)methyl]piperazin-1-yl]-N-methyl-pyridine-2-carboxamide] were 128 nM and more than 100000 nM.
`CCNC(=O)c1ccc(N2CCN(Cc3ccc4nc(C)c(=O)[nH]c4c3F)CC2)c(C)n1` [Example 46, N-ethyl-5-[4-[(5-fluoro-2-methyl-3-oxo-4H-quinoxalin-6-yl)methyl]piperazin-1-yl]-6-methyl-pyridine-2-carboxamide]: the figures for the 50% inhibitory concentration (IC50) at PARP1 and at PARP2 were 10 nM and more than 100000 nM, respectively.
With `CNC(=O)c1ccc(N2CCN(Cc3ccc4nc(C(F)(F)F)c(=O)[nH]c4c3F)CC2)cn1` [Example 50, 5-[4-[[5-fluoro-3-oxo-2-(trifluoromethyl)-4H-quinoxalin-6-yl]methyl]piperazin-1-yl]-N-methyl-pyridine-2-carboxamide], the IC50 on PARP1 was determined as 60 nM; on PARP2, 35000 nM.
`CNC(=O)c1ccc(N2CCN(Cc3ccc4nc(C(C)C)c(=O)[nH]c4c3F)CC2)c(F)n1` [Example 51, 6-fluoro-5-[4-[(5-fluoro-2-isopropyl-3-oxo-4H-quinoxalin-6-yl)methyl]piperazin-1-yl]-N-methyl-pyridine-2-carboxamide]: the IC50 on PARP1 was 6 nM; at PARP2, 1200 nM.
For `CNC(=O)c1ccc(N2CCN(Cc3ccc4nc(C(C)C)c(=O)[nH]c4c3F)CC2)c(C)n1` [Example 52, 5-[4-[(5-fluoro-2-isopropyl-3-oxo-4H-quinoxalin-6-yl)methyl]piperazin-1-yl]-N,6-dimethyl-pyridine-2-carboxamide], in that order: 85 nM and 3800 nM.
In the case of `CNC(=O)c1ccc(N2CCN(Cc3ccc4nc(C(C)C)c(=O)[nH]c4c3F)CC2)cn1` [Example 53, 5-[4-[(5-fluoro-2-isopropyl-3-oxo-4H-quinoxalin-6-yl)methyl]piperazin-1-yl]-N-methyl-pyridine-2-carboxamide], the results for the IC50 at PARP1 and on PARP2 were 26 nM and more than 100000 nM, respectively.
For `CNC(=O)c1ccc(N2CCN(Cc3ccc4nc(C5CC5)c(=O)[nH]c4c3F)CC2)c(F)n1` [Example 54, 5-[4-[(2-cyclopropyl-5-fluoro-3-oxo-4H-quinoxalin-6-yl)methyl]piperazin-1-yl]-6-fluoro-N-methyl-pyridine-2-carboxamide], in that order: 111 nM and more than 100000 nM.
Taken in the same sequence, the figures for `CNC(=O)c1ccc(N2CCN(Cc3ccc4nc(C5CC5)c(=O)[nH]c4c3F)CC2)c(C)n1` [Example 55, 5-[4-[(2-cyclopropyl-5-fluoro-3-oxo-4H-quinoxalin-6-yl)methyl]piperazin-1-yl]-N,6-dimethyl-pyridine-2-carboxamide] were 5 nM and more than 100000 nM.
For `CNC(=O)c1ccc(N2CCN(Cc3ccc4nc(C5CC5)c(=O)[nH]c4c3F)CC2)cn1` [Example 56, 5-[4-[(2-cyclopropyl-5-fluoro-3-oxo-4H-quinoxalin-6-yl)methyl]piperazin-1-yl]-N-methyl-pyridine-2-carboxamide], in that order: 8 nM and more than 100000 nM.
For the molecule `CNC(=O)c1ccc(N2CCN(Cc3ccc4nc(OC)c(=O)[nH]c4c3C)CC2)c(C)n1` [Example 57, 5-[4-[(2-methoxy-5-methyl-3-oxo-4H-quinoxalin-6-yl)methyl]piperazin-1-yl]-N,6-dimethyl-pyridine-2-carboxamide], the concentration for half-maximal inhibition (IC50) at PARP1 was 11 nM; at PARP2 it was more than 100000 nM.
For `CNC(=O)c1ccc(N2CCN(Cc3ccc4nc(OC)c(=O)[nH]c4c3C)CC2)c(C(F)F)n1` [Example 59, 6-(difluoromethyl)-5-[4-[(2-methoxy-5-methyl-3-oxo-4H-quinoxalin-6-yl)methyl]piperazin-1-yl]-N-methyl-pyridine-2-carboxamide], in that order: 6 nM and 2100 nM.
